Experimental data: ChEMBL document CHEMBL1144037, “Structural requirements for the stability of novel cephalosporins to AmpC beta-lactamase based on 3D-structure” (2008)
In brackets after ≈: the same amount, converted by molar mass.

Tests used:
Format in all cases: functional
[1] = system: Pseudomonas aeruginosa; experiment: Antibacterial activity against Pseudomonas aeruginosa FP1380 after 18 hrs by agar dilution method; conditions: FP1380, 18 h
[2] = system: Pseudomonas aeruginosa; experiment: Antibacterial activity against Pseudomonas aeruginosa PAO1 ampD-deffective mutant after 18 hrs by agar dilution method; conditions: PAO1, 18 h
[3] = system: Pseudomonas aeruginosa; experiment: Antibacterial activity against Pseudomonas aeruginosa PAO1 after 18 hrs by agar dilution method; conditions: PAO1, 18 h

Compound | MIC [1] | MIC [2] | MIC [3]
CC(C)(O/N=C(\C(=O)N[C@@H]1C(=O)N2C(C(=O)[O-])=C(C[n+]3ccc(N)n3CCO)CS[C@H]12)c1nsc(N)n1)C(=O)O.Cl | 16 mg/L | 4 mg/L | 0.5 mg/L
Cn1c(N)c(CN)c[n+]1CC1=C(C(=O)[O-])N2C(=O)[C@@H](NC(=O)/C(=N\OC(C)(C)C(=O)O)c3nsc(N)n3)[C@H]2SC1 | – | 0.5 mg/L (≈ 0.841 µM) | 4 mg/L (≈ 6.73 µM)
Cn1c(N)c(CCCCCN)c[n+]1CC1=C(C(=O)[O-])N2C(=O)[C@@H](NC(=O)/C(=N\OC(C)(C)C(=O)O)c3nsc(N)n3)[C@H]2SC1 | – | 1 mg/L (≈ 1.54 µM) | 2 mg/L (≈ 3.07 µM)
Cn1c(N)c(CCCCN)c[n+]1CC1=C(C(=O)[O-])N2C(=O)[C@@H](NC(=O)/C(=N\OC(C)(C)C(=O)O)c3nsc(N)n3)[C@H]2SC1 | – | 0.5 mg/L (≈ 0.785 µM) | 1 mg/L (≈ 1.57 µM)
Cn1c(N)c(N)c[n+]1CC1=C(C(=O)[O-])N2C(=O)[C@@H](NC(=O)/C(=N\OC(C)(C)C(=O)O)c3nsc(N)n3)[C@H]2SC1 | – | 0.5 mg/L (≈ 0.861 µM) | 4 mg/L (≈ 6.89 µM)
Cn1c(CCN)cc[n+]1CC1=C(C(=O)[O-])N2C(=O)[C@@H](NC(=O)/C(=N\OC(C)(C)C(=O)O)c3nsc(N)n3)[C@H]2SC1.O=S(=O)(O)O | – | 0.5 mg/L | 1 mg/L
CC(C)(O/N=C(\C(=O)N[C@@H]1C(=O)N2C(C(=O)[O-])=C(C[n+]3ccccc3)CS[C@H]12)c1csc(N)n1)C(=O)O [CEFTAZIDIME] | 128 mg/L (≈ 234 µM) | – | –
CCCc1c[n+](CC2=C(C(=O)[O-])N3C(=O)[C@@H](NC(=O)/C(=N\OC(C)(C)C(=O)O)c4nsc(N)n4)[C@H]3SC2)n(C)c1N | – | 1 mg/L (≈ 1.65 µM) | 2 mg/L (≈ 3.29 µM)
